Patent US5856435A, “Nucleic acid-containing composition, its preparation and use” (Rhone-Poulenc Rorer SA, priority 1994, dated 1999)
≈ marks a conversion by molar mass, not a printed value. Residues, ends and D or L forms follow the SMILES beside them.

Key:
[1] = solubility of the oligopeptide in water
[2] = study of the dichroic spectra: secondary structures adopted by the cationic oligopeptides; type: physicochemical
Source text: The capacity of the oligopeptides to form secondary structures may be verified by circular dichroism or in NMR, as shown in the examples.
Moreover, as shown in the Table below, a study of the dichroic spectra enabled the secondary structures adopted by the cationic oligopeptides used, in solution or after complexing, to be confirmed.

[3] = Encapsulation of the nucleic acid INV-Val13 in nanoparticles of PLA50(30)-PEG(2)
Source text: The nanoparticles used in this example are diblock copolymers consisting of a poly(D,L-lactic acid) linked via an ester bond to a poly(ethylene glycol): PLAp(M)-PEG(N) where M and N are, respectively, the average molecular masses (in kD) of the PLA and the PEG, and p is the percentage of L-lactic acid. The 2 types of nanoparticles used are PLA50(30)-PEG(2) and PLA50(30)-PEG(5). These copolymers may be synthesized by any technique known to a person skilled in the art (see, for example, EP 520,889).
The nucleic acids were treated with phage T4 polynucleotide kinase (Biolabs) in the presence of [γ-^32 P]ATP (Amersham) in a kinase buffer. After 30 min of incubation at 37° C., the nucleic acid was separated from unreacted ATP by application to a Sephadex G25 column (Quick Spin) and centrifugation.
This Example describes the encapsulation of the nucleic acid INV-Val13 in a nanoparticle of PLA50 (30)-PEG(2) in the presence or absence of oligopeptide (LKKL)10 (SEQ ID NO:6).
The polymer used, (PLA50(30)-PEG(2)), was solubilized in 1 ml of acetone at a concentration of 10 g/l. The isotopic dilution of the nucleic acid (final concentration 10^-5 M) was added, followed by the oligopeptide (at a concentration such that R=1). The organic solution obtained was then poured dropwise into 5 ml of an aqueous solution (50 mM Tris-HCl buffer pH 7.4) with stirring. […]

[4] = tested on: T24/EJ cell line originating from a human bladder carcinoma; experiment: Transfer of nucleic acid into cells: inhibition of cell proliferation induced by the antisense nucleic acid; type: cell-based; conditions: naked, 30 μM, 72 or 96 hours of culture
Method: The tests of nucleic acid transfer described in this example were performed on a cell line originating from a human bladder carcinoma, designated T24/EJ, available in the ATCC. The cells were cultured in MEM-EAGLE medium ("minimum essential medium", Biological Industries) supplemented with L-glutamine ((5 mM), streptomycin (50 u/ml) and penicillin (50 u/ml) in the presence of 7% of foetal calf serum decomplemented for 30 min at 60° C.
The cells (1500/well) were inoculated into 96-well microplates, in the absence or presence of nucleic acid, encapsulated or otherwise in nanoparticles, in a total volume of 100 μl. Each point was performed in triplicate. […]
In the first place, the incorporation of tritiated thymidine, which was determined after adding 2 μCi of 3 H thymidine per well. After 6 hours of incubation in an incubator, the plates were washed with a Skatron apparatus (Lier, Norway), the DNA was collected on a filter and each disc of the filter (corresponding to each well of the plate) was placed in scintillation fluid and then counted in a counter (LKB Wallac 1211 Minibeta). […]
Next, cell proliferation was evaluated by counting the cells in a Malassez cell. For this purpose, the supernatant was removed, the cells were trypsinized (10 min at 37° C.) and culture medium was added to them before they were counted.

physchem = conditions: water
[5] = 50 mM phosphate buffer/0.2 M NaCl

Row | Molecule | secondary structure (dichroic spectra) ([2]; 50 mM phosphate buffer) | secondary structure (dichroic spectra) [2, 5] | secondary structure (dichroic spectra) ([2]; Water/nucleic acid) | conformation in saline solution [2] | conformation in water ([2]; water) | secondary structure (dichroic spectra) ([2]; water) | other results
1 | CC(C)C[C@H](NC(=O)[C@H](CCCCN)NC(=O)[C@H](CC(C)C)NC(=O)[C@H](CCCCN)NC(=O)[C@H](CC(C)C)NC(=O)[C@H](CCCCN)NC(=O)[C@H](CC(C)C)NC(=O)[C@H](CCCCN)NC(=O)[C@H](CC(C)C)NC(=O)[C@H](CCCCN)NC(=O)[C@H](CC(C)C)NC(=O)[C@H](CCCCN)NC(=O)[C@H](CC(C)C)NC(=O)[C@H](CCCCN)NC(=O)[C@H](CC(C)C)NC(=O)[C@H](CCCCN)NC(=O)[C@H](CC(C)C)NC(=O)[C@H](CCCCN)NC(=O)[C@H](CC(C)C)NC(=O)[C@H](CCCCN)NC(=O)[C@H](CC(C)C)NC(=O)[C@H](CCCCN)NC(=O)[C@H](CC(C)C)NC(=O)[C@H](CCCCN)NC(=O)[C@H](CC(C)C)NC(=O)[C@H](CCCCN)NC(=O)[C@H](CC(C)C)NC(=O)[C@H](CCCCN)NC(=O)[C@H](CC(C)C)NC(=O)[C@H](CCCCN)NC(=O)[C@H](CC(C)C)NC(=O)[C@H](CCCCN)NC(=O)[C@H](CC(C)C)NC(=O)[C@H](CCCCN)NC(=O)[C@H](CC(C)C)NC(=O)[C@H](CCCCN)NC(=O)[C@H](CC(C)C)NC(=O)[C@H](CCCCN)NC(=O)[C@@H](N)CC(C)C)C(=O)N[C@@H](CCCCN)C(=O)O [(LKLK)10, (H)-(Leucine-Lysine-Leucine-Lysine)10 -(OH)] (H-LKLKLKLKLKLKLKLKLKLKLKLKLKLKLKLKLKLKLKLK-OH) | β Sheet | β Sheet | β Sheet | β-sheet | unstructured | unstructured | solubility [1]: 100 mg/mL (≈ 20.6 mM)
2 | 3'-CACACCGACGGCG-5' (chemistry not given here; listed 3' to 5') [INV-Val13] | – | – | – | – | – | – | encapsulation yield of INV-Val13 in the nanoparticle ([3]; in the presence of oligopeptide (LKKL)10, R=1, nucleic acid 10^-5 M): 56%; encapsulation yield of INV-Val13 in the nanoparticle ([3]; without the oligopeptide, nucleic acid 10^-5 M): 5%
3 | Polylysine [reference compound] | – | – | – | not structured | – | – | –
4 | 3'-CGCGGCAGCCAC-5' (chemistry not given here; listed 3' to 5') [AS-Val12] | – | – | – | – | – | – | inhibition of cell proliferation [4]: 42%
5 | CC(C)C[C@H](NC(=O)[C@H](CCCCN)NC(=O)[C@H](CCCCN)NC(=O)[C@H](CC(C)C)NC(=O)[C@H](CC(C)C)NC(=O)[C@H](CCCCN)NC(=O)[C@H](CCCCN)NC(=O)[C@H](CC(C)C)NC(=O)[C@H](CC(C)C)NC(=O)[C@H](CCCCN)NC(=O)[C@H](CCCCN)NC(=O)[C@H](CC(C)C)NC(=O)[C@H](CC(C)C)NC(=O)[C@H](CCCCN)NC(=O)[C@H](CCCCN)NC(=O)[C@H](CC(C)C)NC(=O)[C@H](CC(C)C)NC(=O)[C@H](CCCCN)NC(=O)[C@H](CCCCN)NC(=O)[C@H](CC(C)C)NC(=O)[C@H](CC(C)C)NC(=O)[C@H](CCCCN)NC(=O)[C@H](CCCCN)NC(=O)[C@H](CC(C)C)NC(=O)[C@H](CC(C)C)NC(=O)[C@H](CCCCN)NC(=O)[C@H](CCCCN)NC(=O)[C@H](CC(C)C)NC(=O)[C@H](CC(C)C)NC(=O)[C@H](CCCCN)NC(=O)[C@H](CCCCN)NC(=O)[C@H](CC(C)C)NC(=O)[C@H](CC(C)C)NC(=O)[C@H](CCCCN)NC(=O)[C@H](CCCCN)NC(=O)[C@H](CC(C)C)NC(=O)[C@H](CC(C)C)NC(=O)[C@H](CCCCN)NC(=O)[C@H](CCCCN)NC(=O)[C@@H](N)CC(C)C)C(=O)O [(LKKL)10, (H)-(Leucine-Lysine-Lysine-Leucine)10 -(OH)] (H-LKKLLKKLLKKLLKKLLKKLLKKLLKKLLKKLLKKLLKKL-OH) | α Helix | α Helix | α Helix | α-helical | unstructured | unstructured | solubility (physchem): 50 mg/mL (≈ 10.3 mM)
6 | CC(C)C[C@H](NC(=O)[C@H](CCCCN)NC(=O)[C@H](CCCCN)NC(=O)[C@@H]1CCCN1C(=O)[C@H](CC(C)C)NC(=O)[C@H](CCCCN)NC(=O)[C@H](CCCCN)NC(=O)[C@@H]1CCCN1C(=O)[C@H](CC(C)C)NC(=O)[C@H](CCCCN)NC(=O)[C@H](CCCCN)NC(=O)[C@@H]1CCCN1C(=O)[C@H](CC(C)C)NC(=O)[C@H](CCCCN)NC(=O)[C@H](CCCCN)NC(=O)[C@@H]1CCCN1C(=O)[C@H](CC(C)C)NC(=O)[C@H](CCCCN)NC(=O)[C@H](CCCCN)NC(=O)[C@@H]1CCCN1C(=O)[C@H](CC(C)C)NC(=O)[C@H](CCCCN)NC(=O)[C@H](CCCCN)NC(=O)[C@@H]1CCCN1C(=O)[C@H](CC(C)C)NC(=O)[C@H](CCCCN)NC(=O)[C@H](CCCCN)NC(=O)[C@@H]1CCCN1C(=O)[C@H](CC(C)C)NC(=O)[C@H](CCCCN)NC(=O)[C@H](CCCCN)NC(=O)[C@@H]1CCCN1C(=O)[C@H](CC(C)C)NC(=O)[C@H](CCCCN)NC(=O)[C@H](CCCCN)NC(=O)[C@@H]1CCCN1C(=O)[C@H](CC(C)C)NC(=O)[C@H](CCCCN)NC(=O)[C@H](CCCCN)NC(=O)[C@@H]1CCCN1)C(=O)O [(PKKL)10, (H)-(Proline-Lysine-Lysine-Leucine)10 -(OH), reference compound] (H-PKKLPKKLPKKLPKKLPKKLPKKLPKKLPKKLPKKLPKKL-OH) | unstructured | unstructured | unstructured | not structured | – | unstructured | –
